# Source: PMC5641089, “WX-132-18B, a novel microtubule inhibitor, exhibits promising anti-tumor effects” (Oncotarget, 2017)
# How the values were obtained:
# tubulin [1] = tested on: T1, tubulin; assay: competitive colchicine-tubulin fluorescence assay; limited trypsin proteolysis; type: binding, Canis lupus familiaris
# T1 construct: tubulin prepared from fresh dog brain tissue; with alpha/beta-tubulin heterodimer
# tubulin [2] = tested on: T1, tubulin; assay: competition with BODIPY FL-vinblastine (fluorescence); type: binding, Canis lupus familiaris
IC50 (tubulin [1]) [µM],Compound,IC50 (tubulin [2]) [µM]
0.47 ± 0.1,COc1ccc2c(c1)NC(=O)CN2c1nc(C)nc2ccccc12 [WX-132-18B],–
–,CC[C@]1(O)C[C@H]2CN(CCc3c([nH]c4ccccc34)[C@@](C(=O)OC)(c3cc4c(cc3OC)N(C=O)[C@H]3[C@@](O)(C(=O)OC)[C@H](OC(C)=O)[C@]5(CC)C=CCN6CC[C@]43[C@@H]65)C2)C1 [vincristine],6.97 ± 1.61
